How the values were obtained:
[1] = system: M1-transfected COS-7 cells; assay: Calcium recovery in M1-transfected COS-7 cells after dopamine treatment and oxotremorine-induced depolarization; type: cell-based, African green monkey; conditions: 10 μg/ml pre-treatment 45 min, then 1 mM dopamine 4 hours; 750 μM oxotremorine depolarization
Procedure: COS-7 cells, a cell line derived from African green monkey kidney, were grown in Dulbecco's Modified Eagle's Medium (D-MEM) supplemented with 10% fetal bovine serum (FBS) and containing 100 U/ml penicillin and 100 μg/ml streptomycin sulfate. Twenty four hours prior to transfection, cells were harvested with trypsin, counted, and plated on […] tissue culture plates at 5×10^6 cells/plate. Cells were transiently transfected with rat muscarinic receptor subtype 1 DNA by the DEAE-dextran method. After transfection, cells were incubated 2.5 hours in growth medium containing 80 μM chloroquine to minimize degradation of the DNA. Transfected cells were then maintained in growth medium for 48 hours, harvested with trypsin, plated to coverslips in 35 mm plates for calcium imaging, and incubated overnight.
Dis. 6:403-411, and hereby incorporated by reference. The BB extract and stilbenes were dissolved in growth media and cells were subsequently incubated for 45 minutes at 37° C. with the treated growth medium, followed by dopamine administration for 4 hours. Following these incubations, the cells were washed three times with extract-free growth medium prior to testing.
Calcium imaging was carried out using a Medical Systems Corp. open perfusion micro-incubator (37° C.) with temperature control that was mounted on the stage of a Nikon Eclipse TE200U microscope and illuminated with a fluorescent light source. Transfected cells were loaded with Fura-2/acetoxymethyl ester (2 μM) in loading medium (99% DMEM 1% FES) for 40 minutes at 37° C. with 5% CO2.
Real time analyses of calcium flux prior to and following 750 μM oxotremorine-induced depolarization were then carried out using Simple PCI software (Compix, Inc. Mars, Pa.). Response and recovery were then determined for each sample. […] Recovery was determined by assessing the time (within 300 sec) for the Ca^2+ levels to return to 20% of the increase following depolarization in the cells that responded. Data was analyzed by Kruskal-Wallis one-way analysis of variance and Mann-Whitney U tests.

[2] = Pterostilbene in subject hippocampal tissue by GC-MS; type: in vivo, rat
Procedure: Hippocampal brain tissue was extracted from subjects that were euthanized 2-3 weeks following Morris Water Maze testing. The tissue samples were stored at −80° C. and thawed in ice prior to extraction. Tissues were homogenized in 500 μL of phosphate buffer (pH 7.4) then centrifuged (7000 g, 4° C., 15 min). The supernatant was collected and homogenization was repeated. The combined supernatant was extracted with ethyl acetate (500 μL×2). The ethyl acetate extract was dried under a stream of nitrogen.
The dried extract was treated with 30 μL of N,O-bis[trimethylsilyl]trifluoroacetamide:dimethylformamide (BSTFA:DMF, 1:1; Pierce Biotechnology, Inc., Rockford, Ill.) and heated at 70° C. for 40 min. The derivatized sample was used for analysis of pterostilbene by gas chromatography-mass spectrometry (GC-MS). GC-MS was performed on a JEOL GCMate II Instrument (JEOL USA Inc., Peabody, Mass.) using as a J&W DB-5 capillary column (0.25 mm internal diameter, 0.25 μm film thickness, 30 m length; Agilent Technologies, Foster City, Calif.). […] The carrier gas was ultrahigh purity helium, at 1 mL/min flow rate. […] Pterostilbene was determined and quantified from a reconstructed ion chromatogram using m/z 328, 313, 297 and 147. Quantitation was performed from calibration curve of a standard sample of pterostilbene (retention time, 12.5 min). […]

cyclooxygenase-2 = molecular target: T1, cyclooxygenase-2 (Homo sapiens, UniProt P35354); conditions: Rimando et al., 2002; cited from earlier work
T1 sequence (P35354 18-604): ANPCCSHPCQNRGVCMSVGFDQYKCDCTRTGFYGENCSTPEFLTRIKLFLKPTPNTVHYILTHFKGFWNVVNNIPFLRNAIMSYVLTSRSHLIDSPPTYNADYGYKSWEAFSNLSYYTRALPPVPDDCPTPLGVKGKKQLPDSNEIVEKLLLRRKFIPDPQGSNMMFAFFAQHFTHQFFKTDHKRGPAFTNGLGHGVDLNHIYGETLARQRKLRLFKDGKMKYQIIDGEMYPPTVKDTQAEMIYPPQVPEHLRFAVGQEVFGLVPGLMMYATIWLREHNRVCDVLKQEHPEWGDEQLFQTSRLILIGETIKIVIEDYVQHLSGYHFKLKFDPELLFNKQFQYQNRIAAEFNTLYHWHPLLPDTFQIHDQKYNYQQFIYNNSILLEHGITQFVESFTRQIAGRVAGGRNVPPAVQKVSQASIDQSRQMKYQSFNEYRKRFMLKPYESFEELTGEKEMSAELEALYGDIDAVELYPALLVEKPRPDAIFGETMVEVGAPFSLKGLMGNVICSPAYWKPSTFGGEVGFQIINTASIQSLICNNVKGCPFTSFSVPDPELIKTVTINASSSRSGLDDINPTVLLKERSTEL

[3] = molecular target: T2, peroxisome proliferator-activated alpha isoform, (PPARα) (Homo sapiens, UniProt Q07869); conditions: Rimando et al., 2005; cited from earlier work
T2 sequence (Q07869 1-468): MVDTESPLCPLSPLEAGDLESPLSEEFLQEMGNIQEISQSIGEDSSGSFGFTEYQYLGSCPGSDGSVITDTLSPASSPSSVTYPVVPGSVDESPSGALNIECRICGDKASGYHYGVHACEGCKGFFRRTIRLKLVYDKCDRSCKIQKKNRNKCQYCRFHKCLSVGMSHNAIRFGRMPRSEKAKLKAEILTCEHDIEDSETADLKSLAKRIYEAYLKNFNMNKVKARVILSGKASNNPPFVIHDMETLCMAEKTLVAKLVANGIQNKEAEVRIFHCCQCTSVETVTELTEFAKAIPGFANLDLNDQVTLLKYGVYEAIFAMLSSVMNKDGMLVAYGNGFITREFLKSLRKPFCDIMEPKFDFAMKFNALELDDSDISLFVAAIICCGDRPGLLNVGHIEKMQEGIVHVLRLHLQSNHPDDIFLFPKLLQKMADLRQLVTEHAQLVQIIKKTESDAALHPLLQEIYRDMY

[4] = system: inducible nitric oxide synthase (iNOS); conditions: HT-29 human adenocarcinoma cell lines; Suh et al., 2007; cited from earlier work

hippocampal pterostilbene ([2]; high dose diet 0.016% (10 mg/kg), 12-13 weeks on diet): 1.352±0.465 ng/tissue sample
SMILES: COc1cc(/C=C/c2ccc(O)cc2)cc(OC)c1 [pterostilbene, trans-3,5-dimethoxy-4′-hydroxystilbene]
protection against dopamine-induced decreases in Ca2+ Recovery [1]: protected against the dopamine-induced decreases in Recovery | hippocampal pterostilbene detectability ([2]; low dose diet 0.004% (2.5 mg/kg)): only detectable in the high dose pterostilbene group | inhibition of cyclooxygenase-2 (cyclooxygenase-2): weak inhibition | activation of PPARα [3]: identified to activate | expression of iNOS [4]: inhibits the expression of inducible nitric oxide synthase (iNOS)
